Laboratory results published in patent US6730792B2, “β3 adrenergic agonists” (Eli Lilly and Company, priority 2000, dated 2004).

molecular target: T1, human β3 adrenergic receptor (Homo sapiens, UniProt P13945); test: whole cell receptor coupled c-AMP assay, human β3 receptor in CHO cells (EC50, Emax relative to isoproterenol); assay type: cell-based; settings: % intrinsic activity relative to isoproterenol maximal response; average of at least 3 runs; c-AMP in transfected CHO cells
T1 construct: expressed in transfected cells; host or cells: DXB-11 Chinese hamster ovary (CHO) cell line, stably transfected (phd expression vector)
Source text: The genes encoding the human β1-adrenergic receptor (Frielle et al., Proc. Natl. Acad. Sci., 84:7920-7924, 1987), the human β2-adrenergic receptor (Kobika et al., Proc. Natl. Acad. Sci., 84:46-50, 1987, Emorine et al., Proc. Natl. Acad. Sci., 84:6995-6999, 1987) and the human β3 adrenergic receptor (Granneman et al., Molecular Pharmacology, 44(2):264-70, 1993) are individually subcloned into a phd expression vector (Grinnell et al., Bio/Technology, 5:1189-1192, 1987) and transfected into the DXB-11 Chinese hamster ovary (CHO) cell line by calcium phosphate precipitation methodology. The stably transfected cells are grown to 95% confluency in 95% Dulbecco's modified Eagles Medium (DMEM), 5% fetal bovine serum and 0.01% proline. Media is removed and the cells are washed with phosphate buffered (pH 7.4) saline (without magnesium and calcium). Cells are then lifted using an enzyme free cell dissociation solution (Specialty Media, Lavallette, N.J.) and pelleted by centrifugation.
Cells from each of the above cell lines are resuspended and added (20,000/well) to a 96-well plate. Cells are incubated at 37° C. with representative compounds of the invention for 20 minutes in buffer (Hank's balanced salt solution, 10 mM HEPES, 0.1% BSA, 1 mM L-ascorbic acid, 0.2% dimethyl sulfoxide, 1 mm 3-isobutyl-1-methylxanthine, pH 7.4). After halting the incubation with quench buffer (50 mM Na Acetate, 0.25% Triton X-100, pH 5.8), the c-AMP level is quantified by scintillation proximity assay (SPA) using a modification of the commercially available c-AMP kit (Amersham, Arlington Heights, Ill.) with rabbit anti-cAMP antibody (ICN Biomedicals, Aurora, Ohio) for the kit.
Sigmoidal dose response curves, from the whole cell receptor coupled c-AMP assay are fit to a four parameter logistic equation using non linear regression: y=(a−d)/(1+(Dose/c)^b)+d where a and d are responses at zero and maximal dose, b is the slope factor and c is the EC50 as previously described (DeLean et al., Am. J. Physiol., 235, E97-E102, 1978). EC50 is assessed as the concentration producing 50% of the maximum response to each agonist.
Isoproterenol is accepted in the art as a non-selective β3 agonist and is widely used as a comparator in evaluating the activity of compounds. See Trends in Pharm. Sci., 15:3, 1994. The % intrinsic activity (Emax) of representative compounds of the invention is assessed relative to isoproterenol by the compound's maximal response divided by the isoproterenol maximal response times 100.

T1 sequence (P13945 whole entry): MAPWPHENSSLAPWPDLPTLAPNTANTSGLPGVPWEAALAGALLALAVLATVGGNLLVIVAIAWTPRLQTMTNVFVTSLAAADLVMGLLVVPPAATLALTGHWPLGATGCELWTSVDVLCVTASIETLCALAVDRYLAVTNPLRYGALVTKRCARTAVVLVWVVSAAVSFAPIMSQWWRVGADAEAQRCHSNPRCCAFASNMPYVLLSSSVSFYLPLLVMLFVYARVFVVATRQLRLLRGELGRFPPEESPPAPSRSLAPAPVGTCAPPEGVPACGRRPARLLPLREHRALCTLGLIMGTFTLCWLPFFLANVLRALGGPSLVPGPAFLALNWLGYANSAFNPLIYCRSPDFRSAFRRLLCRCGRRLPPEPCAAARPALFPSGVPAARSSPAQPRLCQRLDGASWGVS

Row | Emax (%) ± SEM [%] | Compound
1 | 57.5 ± 12.0 | CC(C)(Cc1ccc(Oc2ncccc2C#N)cc1)NC[C@H](O)COc1c(F)cccc1-c1ccsc1.Cl [Example 436]
2 | 22.5 ± 1.5 | CC(C)(Cc1ccc(Oc2ncccc2C(N)=O)cc1)NC[C@H](O)COc1ccccc1-c1cccnc1 [Example 391]
3 | 60.1 ± 8.2 | Cc1ccc(-c2ccccc2OC[C@@H](O)CNC(C)(C)Cc2ccc(Oc3cccnc3C#N)cc2)s1.Cl [Example 422]
4 | 84.7 ± 12.3 | CC(=O)c1ccc(-c2cccc(F)c2OC[C@@H](O)CNC(C)(C)Cc2ccc(Oc3ccc(C#N)cn3)cc2)s1.O=C(O)C(F)(F)F [Example 429]
5 | 87.5 ± 1.8 | CC(=O)c1ccc(-c2ccccc2OC[C@@H](O)CNC(C)(C)Cc2ccc(Oc3ncccc3C(N)=O)cc2)s1.O=C(O)C(F)(F)F [Example 419]
6 | 49.3 ± 0.3 | CC(C)(Cc1ccc(Oc2ccc(C(N)=O)cn2)cc1)NC[C@H](O)COc1ccccc1-c1ccncc1 [Example 374]

same assay, conditions: Emax ± SEM; average of at least 3 runs except as otherwise indicated; tested as the isolated form listed

Row | Emax (%) ± SEM [%] | Compound
7 | 80.2 ± 5.6 | CC(C)(Cc1ccc(Oc2ccccc2C(N)=O)cc1)NC[C@H](O)COc1ccccc1-c1ncco1.O=C(O)C(F)(F)F [Example 365]
8 | 56.7 ± 2.1 | CC(C)(Cc1ccc(Oc2ccc(C(N)=O)o2)cc1)NC[C@H](O)COc1ccccc1-c1nccs1.O=C(O)C(F)(F)F [Example 327]

same assay, conditions: Emax ± standard error of the mean; average of at least 3 runs except where n = 1; compound tested in the isolated form listed

Row | Emax (%) ± SEM | Compound
9 | 48.1 ± 6.5% | CC(C)(Cc1ccc(Oc2cccnc2C(N)=O)cc1)NC[C@H](O)COc1ccccc1-c1ccno1.O=C(O)C(F)(F)F [Example 198]
10 | <10% | Cn1nccc1-c1ccccc1OC[C@@H](O)CNC(C)(C)Cc1ccc(Oc2ccc(S(C)(=O)=O)cc2)cc1 [Example 127]
11 | 55.9 ± 1.1% | CC(C)(Cc1ccc(Oc2cccnc2C#N)cc1)NC[C@H](O)COc1ccccc1-c1nccs1.O=C(O)C(F)(F)F [Example 144]
12 | 35.8 ± 4.6% | CC(C)(Cc1ccc(Oc2ccc(C#N)cc2)cc1)NC[C@H](O)COc1ccccc1-c1nccs1.O=C(O)C(F)(F)F [Example 120]
13 | 61.9 ± 7.0% | COC(=O)c1ccc(Oc2ccc(CC(C)(C)NC[C@H](O)COc3ccccc3-c3cccs3)cc2)nc1 [Example 115]
14 | 59.1 n = 1% | Cn1ccc(-c2ccccc2OC[C@@H](O)CNC(C)(C)Cc2ccc(Oc3ccc(C#N)cn3)cc2)n1 [Example 49]
15 | 50.4 ± 6.3% | CC(C)(Cc1ccc(Oc2cccc(Cl)c2C(N)=O)cc1)NC[C@H](O)COc1ccccc1-c1ccno1.O=C(O)C(F)(F)F [Example 219]
16 | 48.0 ± 2.0% | CC(C)(Cc1ccc(Oc2ncccc2C(N)=O)cc1)NC[C@H](O)COc1ccccc1-c1cc2ccccc2[nH]1 [Example 21]
17 | 47.5 ± 4.8% | CC(C)(Cc1ccc(Oc2ccc(C(N)=O)cn2)cc1)NC[C@H](O)COc1ccccc1-c1cscn1.Cl [Example 248]
18 | 58.9 ± 3.6% | CC(C)(Cc1ccc(Oc2cccnc2C#N)cc1)NC[C@H](O)COc1ccccc1-c1ccns1.O=C(O)C(F)(F)F [Example 147]
19 | 41.7 n = 1% | COC(=O)c1ccc(Oc2ccc(CC(C)(C)NC[C@H](O)COc3ccccc3-c3ccn(C)n3)cc2)c(Cl)c1 [Example 138]
20 | 73.6 ± 8.2% | CC(C)(Cc1ccc(Oc2ccc(C(N)=O)cc2)cc1)NC[C@H](O)COc1ccccc1-c1cccs1.O=C(O)C(F)(F)F [Example 123]
21 | 36.8 n = 1% | CC(C)(Cc1ccc(Oc2ncccc2C(N)=O)cc1)NC[C@H](O)COc1ccccc1-c1ccn[nH]1 [Example 74]
22 | 41.1 ± 8.2% | CCOC(=O)c1ccc(Oc2ccc(CC(C)(C)NC[C@H](O)COc3ccccc3-c3ccno3)cc2)c(F)c1.O=C(O)C(F)(F)F [Example 186]
23 | 35.9 ± 2.9% | CC(C)(Cc1ccc(Oc2ccc(S(C)(=O)=O)cc2)cc1)NC[C@H](O)COc1ccccc1-c1cscn1.Cl [Example 249]
24 | 20.5 n = 1% | CC(C)(Cc1ccc(Oc2ccc(C(N)=O)cn2)cc1)NC[C@H](O)COc1cccc(-c2ccnc(N)n2)c1 [Example 38]
25 | 66.1 ± 4.8% | CC(C)(Cc1ccc(Oc2ccc(C#N)cn2)cc1)NC[C@H](O)COc1ccccc1-c1cccs1 [Example 5]
26 | 58.1 ± 2.6% | CC(C)(Cc1ccc(Oc2ccccn2)cc1)NC[C@H](O)COc1ccccc1-c1cccs1.O=C(O)C(F)(F)F [Example 1]
27 | 76.5 ± 1.7% | CC(C)(Cc1ccc(Oc2cccc(Cl)c2C(N)=O)cc1)NC[C@H](O)COc1ccccc1-c1cccs1.O=C(O)C(F)(F)F [Example 218]
28 | 58.7 ± 1.8% | CC(C)(Cc1ccc(Oc2ccc(C#N)cn2)cc1)NC[C@H](O)COc1ccccc1-c1nccs1 [Example 6]
29 | 54.1 ± 3.9% | CC(C)(Cc1ccc(Oc2ccc(C(N)=O)s2)cc1)NC[C@H](O)COc1ccccc1-c1cscn1.Cl [Example 259]

Row | Emax (%) ± SEM | Compound
30 | 30.1 ± 2.1% | CC(C)(Cc1ccc(Oc2ncccc2C#N)cc1)NC[C@H](O)COc1ccccc1-c1cc2ccccc2[nH]1 [Example 56]
31 | 57.6 ± 7.1% | CC(C)(Cc1ccc(Oc2ccc(S(C)(=O)=O)cc2Cl)cc1)NC[C@H](O)COc1ccccc1-c1nccs1.O=C(O)C(F)(F)F [Example 182]
32 | 67.4 ± 4.0% | CC(C)(Cc1ccc(Oc2ncccc2C(N)=O)cc1)NC[C@H](O)COc1ccccc1-c1cnco1.Cl [Example 101]
33 | 56.1 ± 4.5% | CC(C)(Cc1ccc(Oc2ccc(Cl)cn2)cc1)NC[C@H](O)COc1ccccc1-c1nccs1.O=C(O)C(F)(F)F [Example 168]
34 | 55.9 ± 4.0% | CC(C)(Cc1ccc(Oc2cccnc2C(N)=O)cc1)NC[C@H](O)COc1ccccc1-c1cscn1.Cl [Example 242]
35 | <10% | Cn1nccc1-c1ccccc1OC[C@@H](O)CNC(C)(C)Cc1ccc(Oc2ccc(C#N)cn2)cc1 [Example 3]
36 | 44.6 ± 4.3% | CC(C)(Cc1ccc(Oc2ccc(C#N)cc2Cl)cc1)NC[C@H](O)COc1ccccc1-c1ccno1.O=C(O)C(F)(F)F [Example 163]
37 | 78.9 ± 2.5% | CC(C)(Cc1ccc(Oc2ncccc2C#N)cc1)NC[C@H](O)COc1ccccc1-c1cccs1 [Example 50]
38 | 72.1 ± 6.2% | CC(C)(Cc1ccc(Oc2ncccc2C(N)=O)cc1)NC[C@H](O)COc1ccccc1N1CCCC1 [Example 84]
39 | 14.2 n = 1% | CC(C)(Cc1ccc(Oc2ncccc2C(N)=O)cc1)NC[C@H](O)COc1cc(Cl)ccc1-c1nnco1 [Example 87]
40 | 70.5 ± 4.9% | CC(C)(Cc1ccc(Oc2ccc(C(N)=O)nc2)cc1)NC[C@H](O)COc1ccccc1-c1ccns1.O=C(O)C(F)(F)F [Example 207]
41 | 45.1 ± 2.6% | CCOC(=O)c1ccc(Oc2ccc(CC(C)(C)NC[C@H](O)COc3ccccc3-c3nccs3)cc2)c(F)c1.O=C(O)C(F)(F)F [Example 185]
42 | 69.5 ± 0.1% | CC(C)(Cc1ccc(Oc2ncccc2C(N)=O)cc1)NC[C@H](O)COc1ccccc1-c1ccno1.Cl [Example 73]
43 | 84.3 ± 5.3% | CCOC(=O)c1cccnc1Oc1ccc(CC(C)(C)NC[C@H](O)COc2ccccc2-c2cccs2)cc1 [Example 107]
44 | 83.5 ± 4.4% | CC1(C)COC(c2ccccc2OC[C@@H](O)CNC(C)(C)Cc2ccc(Oc3ncccc3C(N)=O)cc2)=N1.Cl [Example 83]
45 | 46.1 ± 4.5% | CC(C)(Cc1ccc(Oc2ncccc2C(N)=O)cc1)NC[C@H](O)COc1ccccc1-n1cccn1.Cl [Example 102]
46 | 36.7 ± 6.8% | CC(C)(Cc1ccc(Oc2ccc(C(N)=O)nc2)cc1)NC[C@H](O)COc1ccccc1-n1cccc1.Cl [Example 266]
47 | 40.4 ± 8.8% | CC(C)(Cc1ccc(Oc2ccc(C(F)(F)F)cc2Cl)cc1)NC[C@H](O)COc1ccccc1-c1ccno1.O=C(O)C(F)(F)F [Example 172]
48 | 67.6 ± 4.0% | CCOC(=O)c1ccc(Oc2ccc(CC(C)(C)NC[C@H](O)COc3ccccc3-c3cccs3)cc2)c(Cl)c1.O=C(O)C(F)(F)F [Example 204]
49 | 58.7 ± 2.9% | CC(C)(Cc1ccc(Oc2cccnc2C#N)cc1)NC[C@H](O)COc1ccccc1-c1ccno1.O=C(O)C(F)(F)F [Example 146]
50 | 61.9 ± 2.5% | CC(C)(Cc1ccc(Oc2ccc(C(N)=O)cn2)cc1)NC[C@H](O)COc1ccccc1-c1ccoc1.Cl [Example 43]
